Measurements: EP3431490B1, “CHEMICAL COMPOUNDS FOR USE AS DIAGNOSTIC MARKERS OF INFLAMMATION AND NEOPLAMS, THE METHOD FOR SYNTHESIS OF THE CHEMICAL COMPOUNDS, DIAGNOSTIC KIT FOR USE IN DIAGNOSIS OF INFLAMMATORY PROCESSES AND EPITHELIAL NEOPLASMS AND IN VITRO DIAGNOSTIC METHOD OF INFLAMMATORY PROCESSES AND EPITHELIAL NEOPLASMS” (Uniwersytet Gdanski, priority 2017, dated 2019)

System: proteolytic enzymes in combined urine samples of patients (urothelial epithelial neoplasms)
Experiment: Effect of protease inhibitors on hydrolysis of ABZ-Leu-Glu-Pro-Val-ANB-NH2 in combined urine samples of patients
Format: biochemical, human
Conditions: inhibitor concentrations as in Table 1; fig. 3
Procedure: Proteolytic activity is dependent on the presence of specific compounds called inhibitors (proteolytic enzymes). Their incubation with a given biological material allows us to pre-determine the class of enzymes present in the tested samples. For this purpose, we have added effective inhibitory concentrations of certain classes of proteolytic enzymes to the combined urine samples of the ill persons - patients (urothelial epithelial neoplasms, in particular tumor).

AHX-VYDnV^P(C4H2Cl)2
inhibition of hydrolysis of ABZ-Leu-Glu-Pro-Val-ANB-NH2: complete inhibition of hydrolysis
